The target in experiment [1] is T1, human Smo (amino acids 181-787) (Homo sapiens, UniProt Q99835).
T1 construct: expressed in transfected cells; membrane preparation
Description: Smo radioligand competition binding assay (displacement of 3H-PF-03451358 from HEK293 membranes). Conditions: for inhibition at 0.05 µM: 0.05 μM test compound, displacement of 3H-PF-03451358, read-out: SMO % inh. @ 0.05 μM; for IC50: radioligand competition binding. As for the experimental part: Membranes were prepared from a stable cell line created in HEK293FlpIn-TetR cells (Invitrogen) using FIp recombinase-mediated insertion of the pSecTag-FRT/V5-His vector containing a cDNA encoding amino acids 181-787 of human Smo fused to the murine lgk leader sequence to produce a cell surface expressed Smo 181-781 protein. Hygromycin-resistant clones were obtained and stained for LacZ expression (no expression indicates a correct knock-in of my fusion cDNA). LacZ-negative cells were analyzed for binding tritiated Smo antagonist PF-03451358. For membrane preparation, the HEK293 cells expressing Smo 181-781 were grown to 90% confluence in nine to fifteen 245 mm×245 mm×22 mm dishes, washed with Dulbecco's PBS (15 ml per dish) and harvested via scraping in 10 ml of DPBS. The cells were collected and centrifuged at 1500 rpm (400×g) for 10 min at 4° C. The cell pellets were re-suspended in 40 ml of cold DPBS and washed by centrifugation at 2300 rpm (950×g max) for 10 minutes at 4° C. The supernatant was aspirated and the cell pellet was snap frozen in a methanol/dry ice bath and stored at −70° C. For membrane preparation, 15 ml of Membrane Preparation Buffer (50 mM Tris-HCl pH 7.5, 250 mM sucrose with Roche complete protease cocktail tablets) is added to the tube containing the cell pellet, then cells are rapidly thawed, and homogenized using an Ultra-Turrax T8 (IKA Labortechnik) set on “6” for 15 seconds for 5-6 times in icy water bath. This homogenate was diluted up to 50 ml using Membrane Preparation Buffer and centrifuged at 35,000 rpm in a Beckman Ti45 rotor (140,000×g) for 35 minutes at 4° C. followed by aspiration of the supernatant and re-suspension of the pellet in 5 ml of Assay Buffer (50 mM Tris-HCl pH 7.5, 100 mM NaCl, 25 mM MgCl2, 1 mM EDTA, and 0.1% protease free bovine serum albumin). The re-suspended pellet is then homogenized in a glass tissue grinder. The re-suspended membranes are aliquoted (0.5 ml aliquots), snap frozen and stored at −70° C. Total protein in the membrane preparation is determined using the Pierce BCA protein assay (Pierce Chemical).
For the binding competition assay, 100 μl of Assay Buffer is added to all the wells of a 96 well GF/B filter plate (Millipore MultiScreen-HTS-FB cat# MSFBN6B50) for 10 minutes to pre-wet the filter prior to evacuation of the buffer (8 inches Hg for 8 seconds). To the pre-wet wells is added: 20 μl of Assay Buffer, 10 μl diluted test agent, 20 μl of ^3H-PF-3451358 (15 nM stock solution), and 50 μl of membrane preparation (40 μg total protein per well). The plates are sealed and mixed at room temperature for 5 min, incubated at room temperature for 2 hours, then washed 5 times with 100 μl/each of wash buffer and vacuum dried for 8 seconds at 8 inch Hg. The plate is then dried for one hour in a 60° C. oven prior to the addition of 45 μl of Microscint 20 (Packard, #6013621) to each well and incubation at RT for 30 minutes to 1 hour. The plate is counted in a TopCount scintillation counter (Perkin Elmer).
Data analysis uses Excel for % Inhibition and Graphpad Prism for IC50 calculation. Total binding (TB, in the absence of inhibitors)=average of ^3H PF-03451358 3 nM+SMO membrane (40 μg/wells (approx 5000-7000 CPM). Non-specific binding (NSB)=average of ^3H PF-03451358 (3 nM)+cold PF-03451358 (30 μM)+SMO membrane (approx 600-1200 CPM). Specific binding (SB)=(total binding−non-specific binding). % Inhibition=[1−(compound Specific binding/control Specific binding)]×100%. IC50 is calculated by fitting the data to the four parameter sigmoidal dose-response curve (variable slope) Y=Bottom+(Top-Bottom)/(1+10̂((LogEC50−X)*HillSlope)). X is the logarithm of the inhibitor concentration. Y is the response; Y starts at Bottom and goes to Top with a sigmoid shape.
Background: Displacement assays read how much labelled ligand stays bound in the presence of the test substance.

A further experiment concerns Gli-Luc/MEF cells (Smo). Description: Gli-Luc/MEF assay (Shh-stimulated luciferase reporter under the Gli response element). It counts as cell-based, mouse. Conditions: Mus musculus, MEF, 48 h. As for the experimental part: The Gli-Luc/MEF cells obtained from Gli-Luc transgenic mice (Pfizer CoE, Genetically Modified Mice) contain a luciferase reporter gene under the control of the Gli response element. Luciferase activity stimulated with Sonic hedgehog ligand was inhibited by Smo inhibitors, and IC50 was subsequently calculated.
Plates were incubated at 37° C. and 5% CO2 overnight. On day two, cells were dosed with test compounds at a final concentration ranging from […] to 50 μM at a 3-time series dilution. Immediately after dosing cells with compounds, recombinant mouse sonic hedgehog (Shh, R&D Systems 464-SH) was added to a final concentration of 2 μg/mL. The cells were incubated with compounds and Shh for 48 hours at 37° C. and 5% CO2. Luciferase assays were conducted on Day 4 using the Bright-Glo Luciferase assay system (Promega E2620) according to Promega's protocol. Briefly, Bright-Glo luciferase reagent was made up and 25 uL were added to each well of the 384-well plate containing media. Plates were kept at room temperature for 5 minutes, and then read on an Envision Luminescence plate reader (Perkin-Elmer). IC50 of the inhibition was calculated by using GraphPad Prism.
On the technique in general: In a reporter assay the amount or activity of a reporter protein is the signal.

One may read the IC50 as the concentration needed to halve the response being measured.

Molecules are shown by their SMILES. Structures can show the parent of a compound that is named as a salt.

T1 sequence (Q99835 181-787): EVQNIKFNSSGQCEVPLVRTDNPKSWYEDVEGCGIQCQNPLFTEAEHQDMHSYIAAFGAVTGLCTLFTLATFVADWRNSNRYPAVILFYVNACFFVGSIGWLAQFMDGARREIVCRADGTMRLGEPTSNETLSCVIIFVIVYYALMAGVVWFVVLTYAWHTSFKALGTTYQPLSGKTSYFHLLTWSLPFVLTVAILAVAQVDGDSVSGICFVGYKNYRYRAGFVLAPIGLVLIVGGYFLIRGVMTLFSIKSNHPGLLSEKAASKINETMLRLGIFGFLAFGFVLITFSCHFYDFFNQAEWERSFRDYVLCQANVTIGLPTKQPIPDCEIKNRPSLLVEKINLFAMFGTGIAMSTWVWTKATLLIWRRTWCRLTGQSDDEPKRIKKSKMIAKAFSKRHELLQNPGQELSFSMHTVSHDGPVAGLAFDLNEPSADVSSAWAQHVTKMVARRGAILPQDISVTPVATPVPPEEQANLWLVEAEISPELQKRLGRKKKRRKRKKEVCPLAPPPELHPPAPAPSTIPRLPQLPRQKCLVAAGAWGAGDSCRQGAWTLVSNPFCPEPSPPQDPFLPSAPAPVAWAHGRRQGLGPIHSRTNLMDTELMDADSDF

With `CC1CC2(CCN1c1cc(-c3nc4ccccc4n3C)c(Cl)cn1)CNC(=O)C2` (stereo in doubt) [Example A-48, (5R,7S)-8-[5-chloro-4-(1-methyl-1H-benzimidazol-2-yl)pyridin-2-yl]-7-methyl-2,8-diazaspiro[4.5]decan-3-one], in experiment [1], the inhibition at 0.05 µM worked out at 100% and the IC50 is 7 nM. In the experiment with Gli-Luc/MEF cells (Smo), this compound registered an IC50 of 7 nM.

In the case of `Cn1c(-c2cc(N3C[C@H]4CNS(=O)(=O)[C@H]4C3)ncc2Cl)nc2ccccc21` (stereo in doubt) [Example A-55, 2-{5-chloro-2-[(3aS,6aR)-1,1-dioxidohexahydro-5H-pyrrolo[3,4-d]isothiazol-5-yl]pyridin-4-yl}-1-methyl-1H-benzimidazole], in experiment [1], the inhibition at 0.05 µM was 98% and the IC50 is 26 nM. In addition, the IC50 with Gli-Luc/MEF cells (Smo) is 10 nM.

As for `CC(=O)NC1CCN(c2cc(-c3nc4ccccc4n3C)c(Cl)cn2)C1` (stereo in doubt) [Example A-134, N-{(3S)-1-[5-chloro-4-(1-methyl-1H-benzimidazol-2-yl)pyridin-2-yl]pyrrolidin-3-yl}acetamide], the inhibition at 0.05 µM in experiment [1] came to 48%.

Consider `Cn1c(-c2cc(N3CCC(C(=O)O)CC3)ncc2Cl)nc2ccccc21` [Example A-7, 1-[5-chloro-4-(1-methyl-1H-benzimidazol-2-yl)pyridin-2-yl]piperidine-4-carboxylic acid], for which the inhibition at 0.05 µM in experiment [1] amounted to 39%.

On to `Cn1c(-c2cc(N3CCC(S(C)(=O)=O)CC3)ncc2Cl)nc2cccnc21` [Example A-37, 2-{5-chloro-2-[4-(methylsulfonyl)piperidin-1-yl]pyridin-4-yl}-3-methyl-3H-imidazo[4,5-b]pyridine], for which, in experiment [1], the inhibition at 0.05 µM was determined as 67% and the concentration for half-maximal inhibition (IC50) stood at 247 nM.

Regarding `COC1CCN(c2cc(-c3nc4cccnc4n3C)c(Cl)cn2)CC1` [Example A-38, 2-[5-chloro-2-(4-methoxypiperidin-1-yl)pyridin-4-yl]-3-methyl-3H-imidazo[4,5-b]pyridine], in experiment [1], the inhibition at 0.05 µM was found to be 51% and the IC50 was determined as 463 nM.

Turning to `CC(=O)N1CCN(c2cc(-c3nc4cccnc4n3C)c(Cl)cn2)CC1` [Example A-40, 2-[2-(4-acetylpiperazin-1-yl)-5-chloropyridin-4-yl]-3-methyl-3H-imidazo[4,5-b]pyridine], in experiment [1], the inhibition at 0.05 µM came to 66% and the IC50 was 158 nM.

In the case of `Cn1c(-c2cc(N3CC(c4ncc[nH]4)C3)ncc2Cl)nc2ccccc21` [Example A-133, 2-{5-chloro-2-[3-(1H-imidazol-2-yl)azetidin-1-yl]pyridin-4-yl}-1-methyl-1H-benzimidazole], in experiment [1], the inhibition at 0.05 µM was determined as 48%.

In the case of `Cc1nccn1CC1(O)CCN(c2cc(-c3nc4ccccc4n3C)c(Cl)cn2)C1` (stereo not shown) [Example A-135, 1-[5-chloro-4-(1-methyl-1H-benzimidazol-2-yl)pyridin-2-yl]-3-[(2-methyl-1H-imidazol-1-yl)methyl]pyrrolidin-3-ol], the inhibition at 0.05 µM in experiment [1] was 46%.

`Cn1c(-c2cc(N3CCC(O)(CN4CCCC4=O)C3)ncc2Cl)nc2ccccc21` (stereo not shown) [Example A-136, 1-({1-[5-chloro-4-(1-methyl-1H-benzimidazol-2-yl)pyridin-2-yl]-3-hydroxypyrrolidin-3-yl}methyl)pyrrolidin-2-one]: the inhibition at 0.05 µM in experiment [1] was determined as 46%.

On to `CN1CCN(C2COCCN(c3cc(-c4nc5ccccc5n4C)c(Cl)cn3)C2)CC1` (stereo not shown) [Example A-137, 2-{5-chloro-2-[6-(4-methylpiperazin-1-yl)-1,4-oxazepan-4-yl]pyridin-4-yl}-1-methyl-1H-benzimidazole], for which the inhibition at 0.05 µM in experiment [1] came out at 45%.

Take `Cn1cnnc1C1CCCN(c2cc(-c3nc4ccccc4n3C)c(Cl)cn2)C1` (stereo not shown) [Example A-138, 2-{5-chloro-2-[3-(4-methyl-4H-1,2,4-triazol-3-yl)piperidin-1-yl]pyridin-4-yl}-1-methyl-1H-benzimidazole]: in experiment [1], the inhibition at 0.05 µM is 45%.

Turning to `Cn1c(-c2cc(N3CC(c4cccnn4)C3)ncc2Cl)nc2ccccc21` [Example A-139, 2-[5-chloro-2-(3-pyridazin-3-ylazetidin-1-yl)pyridin-4-yl]-1-methyl-1H-benzimidazole], the inhibition at 0.05 µM in experiment [1] is 42%.

On to `Cn1c(-c2cc(N3CCC(O)(c4ncccn4)C3)ncc2Cl)nc2ccccc21` (stereo not shown) [Example A-140, 1-[5-chloro-4-(1-methyl-1H-benzimidazol-2-yl)pyridin-2-yl]-3-pyrimidin-2-ylpyrrolidin-3-ol], for which the inhibition at 0.05 µM in experiment [1] worked out at 42%.

`Cn1c(-c2cc(NCCN)ncc2Cl)nc2ccccc21` [Example A-142, N-[5-chloro-4-(1-methyl-1H-benzimidazol-2-yl)pyridin-2-yl]ethane-1,2-diamine]: the inhibition at 0.05 µM in experiment [1] worked out at 44%.

Take `Cn1c(-c2cc(NCCS(C)(=O)=O)ncc2Cl)nc2ccccc21` [Example A-167, 5-chloro-4-(1-methyl-1H-benzimidazol-2-yl)-N-[2-(methylsulfonyl)ethyl]pyridin-2-amine]: in experiment [1], the inhibition at 0.05 µM worked out at 64% and the IC50 was determined as 287 nM.

For `CN(CCN)c1cc(-c2nc3ccccc3n2C)c(Cl)cn1` [Example A-184, N-[5-chloro-4-(1-methyl-1H-benzimidazol-2-yl)pyridin-2-yl]-N-methylethane-1,2-diamine], in experiment [1], the inhibition at 0.05 µM came out at 50% and the IC50 amounted to 342 nM.

With `Cn1c(-c2nc(N3CCNCC3)ccc2Cl)nc2ccccc21` [Example B-1, 2-(3-chloro-6-piperazin-1-ylpyridin-2-yl)-1-methyl-1H-benzimidazole formate salt], the inhibition at 0.05 µM in experiment [1] was determined as 59%.

For `CC(=O)N1CCN(c2nccc(-c3nc4ccccc4n3C)n2)CC1` [Example C-2, 2-[2-(4-Acetylpiperazin-1-yl)pyrimidin-4-yl]-1-methyl-1H-benzimidazole], in experiment [1], the inhibition at 0.05 µM was 65% and the IC50 came out at 447 nM.

Take `Cn1c(-c2ccnc(N3CCN(S(C)(=O)=O)CC3)n2)nc2ccccc21` [Example C-4, 1-Methyl-2-{2-[4-(methylsulfonyl)piperazin-1-yl]pyrimidin-4-yl}-1H-benzimidazole]: in experiment [1], the inhibition at 0.05 µM amounted to 45%.

Turning to `COC(=O)N1CCN(c2nccc(-c3nc4ccccc4n3C)n2)CC1` [Example C-6, Methyl 4-[4-(1-methyl-1H-benzimidazol-2-yl)pyrimidin-2-yl]piperazine-1-carboxylate], the inhibition at 0.05 µM in experiment [1] was found to be 27%.

The record behind these values is patent publication US20120157471A1, “BENZIMIDAZOLE DERIVATIVES” (PFIZER INC., priority 2009, published 2012).
